In patent US20240158352A1, “NOVEL ADAMANTYL DERIVATIVE OR PHARMACEUTICALLY ACCEPTABLE SALT THEREOF, AND USE THEREOF” (CAN-Therapy Inc., priority 2021, published 2024):

Legend:
[1] = test system: A549, a human lung cancer cell line; assay: WST cell viability assay, A549; assay type: cell-based; settings: for IC50: 48 h, A549, human lung cancer, WST, read-out: Cell growth inhibition IC50
Protocol: (§1) After treating LLC, a mouse lung carcinoma cell line, and A549, a human lung cancer cell line, with KUgt-102 derivatives, cell viability was measured by water soluble tetrazolium (WST) cell viability assay.
(§2) The lung cancer cell lines LLC and A549 were attached to a 96-well plate at 5×10e^3 and 1×10e^4 cells/wells, respectively. The next day, the culture medium was removed, and they were added with new medium treated with the KUgt-102 derivative and evogliptin and saxagliptin, respectively, which have a structure similar to that of the derivative of the present disclosure known as a DPP4 inhibitor, as a positive control, in a concentration-dependent manner from 0.01 to 20 mM. Cells treated with the derivative and control group were cultured at 37° C. in 5% CO2. After 2 days, the cultured cells were treated with WST reagent (EZ-CYTOX, Dogen, Republic of Korea) at a final volume of 1:10 to analyze cell viability. Thereafter, the cultured plate was stored in an incubator at 37° C.
(§3) After culturing for 1 hour, the color change was measured at 450 nm using a microplate reader (SpectraMAX190, molecular Devices, CA, USA), and the measurement results are shown in FIGS. 2 and 3.

[2] = test system: LLC, a mouse lung carcinoma cell line; assay: WST cell viability assay, LLC; assay type: cell-based; settings: 0.01 to 20 mM, 2 days; for IC50: 48 h, mouse lung carcinoma, WST, read-out: Cell growth inhibition IC50
Protocol: as §1, §2, §3

[3] = molecular target: T1, DPP4 (human recombinant) (Homo sapiens, UniProt P27487); assay: DPP4 screening assay (Abcam 133081 kit, Gly-Pro-AMC fluorescent substrate); assay type: biochemical; settings: FIG. 1; for DPP4 inhibitory activity: treated at 1 μM, 100 nM, 10 nM, 1 nM and 100 pM, 37° C., 30 minutes
T1 construct: purchased Abcam (Boston, USA) 133081
T1 sequence (P27487 whole entry): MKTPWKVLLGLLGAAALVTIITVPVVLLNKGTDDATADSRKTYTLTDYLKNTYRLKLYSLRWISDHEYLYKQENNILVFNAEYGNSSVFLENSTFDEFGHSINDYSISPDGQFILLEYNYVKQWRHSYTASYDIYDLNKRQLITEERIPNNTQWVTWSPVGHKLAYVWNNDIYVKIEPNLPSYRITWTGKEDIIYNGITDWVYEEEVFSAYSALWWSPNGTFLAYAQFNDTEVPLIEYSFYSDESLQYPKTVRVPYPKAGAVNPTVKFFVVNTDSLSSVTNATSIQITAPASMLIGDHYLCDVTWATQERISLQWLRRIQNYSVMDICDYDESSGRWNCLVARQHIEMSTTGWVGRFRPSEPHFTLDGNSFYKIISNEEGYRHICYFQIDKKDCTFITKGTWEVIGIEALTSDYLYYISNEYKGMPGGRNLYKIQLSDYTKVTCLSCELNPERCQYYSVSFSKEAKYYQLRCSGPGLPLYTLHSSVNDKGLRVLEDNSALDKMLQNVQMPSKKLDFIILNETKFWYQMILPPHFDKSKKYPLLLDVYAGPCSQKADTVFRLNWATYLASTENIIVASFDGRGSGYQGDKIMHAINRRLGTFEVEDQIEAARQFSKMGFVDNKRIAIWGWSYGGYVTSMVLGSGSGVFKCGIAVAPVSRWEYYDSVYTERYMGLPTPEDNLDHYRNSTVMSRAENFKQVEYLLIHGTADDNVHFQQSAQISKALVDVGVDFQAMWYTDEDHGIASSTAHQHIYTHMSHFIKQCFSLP
Protocol: DPP4 screening assay was performed to identify the DPP4 inhibitory activity of the adamantyl derivatives KUgt-102 and KUgt-103 of the present disclosure. Abcam (Boston, USA) 133081 was used as an assay kit, and Gly-Pro-Aminomethylcoumarin was used as a fluorescent substrate. That is, the fluorescence emitted from aminomethylcoumarin (AMC), which was freed by cleaving the peptide bond by DPP, was analyzed at an excitation wavelength of 350 to 360 nm and an emission wavelength of 450 to 465 nm to measure the DPP4 inhibitory activity.
More specifically, DPP Assay Buffer (10×) was dissolved in HPLC-grade pure water, thereby preparing 1× solution. 120 μl of DPP4 (human recombinant) contained in each glass vial was mixed with 480 μl of 1× assay buffer. 120 μl of Gly-Pro-AMC, in which 5 mM H-Gly-Pro was conjugated to AMC, was dissolved in 2.88 ml assay buffer to produce DPP substrate. As a positive control, vildagliptin and saxagliptin, which have a similar structure to the derivative of the present disclosure, known as DPP4 inhibitor, were dissolved in 500 μl of assay buffer to make 1 mM, and the result was used in the reaction. As an experimental group, 10 μl each of adamantyl derivatives KUgt-102 and KUgt-103 was used in the reaction. […] The reaction was repeated three times.
After the reaction, fluorescence was measured at an excitation wavelength of 350-360 nm and an emission wavelength of 450-465 nm using a fluorescence microplate reader (SPECTRA MAX Gemini EM, USA). Thereafter, the inhibitory activity was calculated as follows.

IC50 ([1]; 0.01 to 20 mM, 2 days) [µM]	IC50 [2] [µM]	DPP4 inhibitory activity [3]	SMILES	DPP4 inhibitory activity compared with positive controls vildagliptin and saxagliptin [3]	cell viability ([1]; A549, 0.01 to 20 mM, 2 days, FIG. 3)	anticancer activity relative to evogliptin and saxagliptin, based on the same amount ([1]; human lung cancer cell lines)	amount needed for effective killing effect compared to evogliptin and saxagliptin ([1]; human lung cancer cell lines, relative to evogliptin and saxagliptin) [%]	cell viability ([2]; FIG. 2)
750 ± 10	660 ± 10	–	CC(C)(C)OC[C@@H]1C(=O)NCCN1C(=O)C[C@H](N)Cc1cc(F)c(F)cc1F [Evogliptin, evogliptin, reference compound]	–	–	–	–	–
240 ± 10	330 ± 10	excellent DPP4 inhibitory activity	N#C[C@@H]1CCCCN1C(=O)[C@@H](N)C12CC3CC(CC(O)(C3)C1)C2 [KUgt-102, (S)-1-((S)-2-amino-2-((1r,3R,5R,7S)-3-hydroxyadamantan-1-yl)acetyl)piperidine-2-carbonitrile]	higher inhibitory activity than vildagliptin and saxacliptin	inhibited cell viability in a concentration-dependent manner	about three times better anticancer activity	≤ 30	inhibited cell viability in a concentration-dependent manner
–	–	excellent DPP4 inhibitory activity	N[C@H](C(=O)N(CCO)CCO)C12CC3CC(CC(O)(C3)C1)C2 [KUgt-103, (S)-2-amino-2-((1r,3R,5R,7S)-3-hydroxyadamantan-1-yl)-N,N-bis(2-hydroxyethyl)acetamide]	–	–	–	–	–
900 ± 10	950 ± 10	–	N#C[C@@H]1C[C@@H]2C[C@@H]2N1C(=O)[C@@H](N)C12CC3CC(CC(O)(C3)C1)C2 [Saxagliptin, saxagliptin, reference compound]	–	–	–	–	–
